Data from patent US7772383B2, “Chemical PCR: Compositions for enhancing polynucleotide amplification reactions” (The Trustees of Princeton University, priority 2002, dated 2010).

System: bovine brain glycolipid transfer protein (GTP) cDNA (660 bp)
Test: PCR amplification of GTP with lower denaturation/extension temperatures
Assay type: biochemical
Settings: for Potency: annealing 55° C., normalized: 1,5-pentanediol (95/72° C.) = 1; for Effective: concentration interval over which target band minus control is at least 50% of maximum volume
Description: Amplification reactions were carried out under the following general conditions. Those skilled in the art will appreciate, however, that to the extent that the conditions (set forth in this application) required for specific experiments described in this example were inconsistent with the following general conditions, limited exceptions to the following general conditions were made The general conditions were as follows: 10 Mm Tris-HCl (Ph 8.8), 50 Mm KCl, 1.5 Mm MgCl2, 0.01% (w/v) gelatin, 0.2 Um primers, 0.06 ng/ul template, 0.2 Mm each Dntp, 0.04 U/ul Taq polymerase. The templates used were bovine brain N-WASP cDNA (1518 bp), a 996 by segment of human myeloid leukocyte c-jun cDNA, a 511 by segment of human prostate-specific membrane antigen (PSM) cDNA, and bovine brain glycolipid transfer protein (GTP) cDNA (660 bp). cDNA synthesis was carried out using the FIRST-STRAND® RT-PCR kit from Stratagene on the respective mRNAs purchased from Clontech. All amplification reactions for gene were carried out using a single master batch of cDNA. Taq polymerase and dNTPs were obtained from Stratagene. Primers were obtained from Genosys. Primer melting temperatures (Tms) were calculated using the Genosys oligo calculator program. The sequences of the primers were as follows.
Polymerase chain reactions for the N-WASP gene were conducted on a ROBOCYCLER® Gradient 40 thermal cycler from Stratagene using 100 ul solutions in 600 ul thin-walled tubes. For expediency, amplification of c-jun, PSM and GTP was carried out in a ROBOCYCLER® Gradient 96 thermal cycler from Stratagene using 50 ul solutions in 200 ul thin-walled tubes. Prior to Taq polymerase addition, a hotstart protocol was carried out that consisted of an initial cycle of 95° C. for 5 minutes (11) to ensure complete first-strand separation, followed by a cycle of 54° C. for 5 minutes. Amplifications were run for 30 cycles. Denaturation was done for 1 minute at the minimum temperatures that yielded discernable amplification: 92° C. for N-WASP and 95° C. for c-jun, PSM and GTP. Extension was done at 72° C. for periods depending on target length: 2 minutes for N-WASP, 1.5 minutes for c-jun and GTP, and 1 minute for PSM. Annealings were carried out either at fixed concentrations of additives using temperature gradients of 38-56° C. for N-WASP and 44-58° C. for the other targets, or at varying concentrations of additives using fixed temperatures of 41° C. for N-WASP, 50° C. for c-jun and PSM, and 54° C. for GTP.
Amplification products were analyzed by agarose gel electrophoresis on 0.8% agarose gels in which 20 ul reaction products were loaded with 4 ul loading buffer. Gels were stained with ethidium bromide, visualized on a UV transilluminator (Fisher), and documented by photography. Densitometric quantitation of amplification products was carried out using IMAGE SCANNER® and IMAGE MASTER® software from Amersham Pharmacia. Background correction was done using the software's rolling disc method.
Two phases of investigations were carried out into the use of 62° C. extension temperature in PCR reactions. The first involved concentration gradients with 1,2-butanediol and 1,5-pentanediol employing 62° C. extension and 95° C. denaturation. The first template used was GTP. A larger range of concentrations was employed than usual in the experiments due to the anticipated increase in effective range. These concentrations were: 0.1, 0.31, 0.5, 0.6, 0.8, 0.9 and 1.1M for 1,2-butanediol and 0.01, 0.2, 0.3, 0.4, 0.5, 0.7 and 1.0M for 1,5-pentanediol. The second phase of investigation involved experiments in which the denaturation temperature was lowered to 92° C. The following concentrations were tested: 1,2-butanediol—0.1, 0.3, 0.5, 0.6, 0.7, 0.9, 1.1, 1.3, and 1.4M; 1,5-pentanediol: 0.1, 0.2, 0.3, 0.4, 0.5, 0.7, 1.0, and 1.4M. 1,2-butanediol was also tested with the more GC-rich template c-jun. The following concentrations were tested: 0.1, 0.3, 0.5, 0.7, 0.9, 1.1, 1.4M.

[1] = 92/62° C. denaturation/extension
[2] = 95/62° C. denaturation/extension

**Q.** How did the Potency [1] turn out when `CCC(O)CO` (stereo not drawn) [1,2-Butanediol] was run?
**A.** The Potency was 1.50.

**Q.** And the Effective (92/62° C.)?
**A.** Its Effective is 0.50-1.27.

**Q.** What about the Potency [2] of the same molecule?
**A.** Its Potency is 0.88.

**Q.** And the Effective (95/62° C.)?
**A.** The Effective was 0.10-0.82.

**Q.** Which results are given for `OCCCCCO` [1,5-Pentanediol]?
**A.** Potency [1]: 1.97; Effective (92/62° C.): 0.29-0.90; cutoff concentration (92° C. denaturation, 62° C. extension): 1.0 M; Potency [2]: 1.49; Effective (95/62° C.): 0.15-0.63
